According to ChEMBL document CHEMBL3991601, “The target landscape of clinical kinase drugs” (Science, 2017):
Calls of active or inactive are those of the source. For most assays here, no stated cut-off is given here; in the data, actives have a measured Kd and inactives only a lower limit.

What was measured:
[1] = target: T1, Delta(24)-sterol reductase (Homo sapiens, UniProt Q15392)
T1 sequence (Q15392 whole entry): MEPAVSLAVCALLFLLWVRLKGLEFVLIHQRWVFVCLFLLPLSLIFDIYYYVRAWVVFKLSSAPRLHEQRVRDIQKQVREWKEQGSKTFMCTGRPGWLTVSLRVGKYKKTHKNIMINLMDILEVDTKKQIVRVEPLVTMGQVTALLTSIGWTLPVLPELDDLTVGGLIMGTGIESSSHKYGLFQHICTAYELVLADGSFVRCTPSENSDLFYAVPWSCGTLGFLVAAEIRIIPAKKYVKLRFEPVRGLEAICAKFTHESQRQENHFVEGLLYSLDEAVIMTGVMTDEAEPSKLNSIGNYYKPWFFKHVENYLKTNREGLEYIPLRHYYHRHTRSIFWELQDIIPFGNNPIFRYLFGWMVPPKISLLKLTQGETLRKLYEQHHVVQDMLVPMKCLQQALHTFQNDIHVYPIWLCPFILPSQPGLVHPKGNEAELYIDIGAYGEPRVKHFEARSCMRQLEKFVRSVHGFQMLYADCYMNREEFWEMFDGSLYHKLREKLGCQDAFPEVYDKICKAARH

[2] = target: T2, Interleukin-1 receptor-associated kinase 4 (Homo sapiens, UniProt Q9NWZ3)
T2 sequence (Q9NWZ3 whole entry): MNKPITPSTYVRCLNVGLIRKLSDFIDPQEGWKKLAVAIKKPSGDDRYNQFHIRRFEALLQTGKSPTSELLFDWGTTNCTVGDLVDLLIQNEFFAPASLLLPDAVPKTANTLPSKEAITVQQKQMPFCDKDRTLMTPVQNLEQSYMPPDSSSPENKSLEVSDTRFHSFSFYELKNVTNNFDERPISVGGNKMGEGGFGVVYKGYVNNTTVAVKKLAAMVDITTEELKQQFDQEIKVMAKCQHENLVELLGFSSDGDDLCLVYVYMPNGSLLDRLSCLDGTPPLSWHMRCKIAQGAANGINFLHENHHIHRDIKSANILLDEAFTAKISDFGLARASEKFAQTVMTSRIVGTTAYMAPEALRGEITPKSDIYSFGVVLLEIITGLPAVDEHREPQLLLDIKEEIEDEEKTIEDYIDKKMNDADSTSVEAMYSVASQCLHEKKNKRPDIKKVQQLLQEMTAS

[3] = target: Macrophage-stimulating protein receptor (Homo sapiens, UniProt Q04912)
[4] = target: T3, Serine/threonine-protein kinase PLK4 (Homo sapiens, UniProt O00444)
T3 sequence (O00444 whole entry): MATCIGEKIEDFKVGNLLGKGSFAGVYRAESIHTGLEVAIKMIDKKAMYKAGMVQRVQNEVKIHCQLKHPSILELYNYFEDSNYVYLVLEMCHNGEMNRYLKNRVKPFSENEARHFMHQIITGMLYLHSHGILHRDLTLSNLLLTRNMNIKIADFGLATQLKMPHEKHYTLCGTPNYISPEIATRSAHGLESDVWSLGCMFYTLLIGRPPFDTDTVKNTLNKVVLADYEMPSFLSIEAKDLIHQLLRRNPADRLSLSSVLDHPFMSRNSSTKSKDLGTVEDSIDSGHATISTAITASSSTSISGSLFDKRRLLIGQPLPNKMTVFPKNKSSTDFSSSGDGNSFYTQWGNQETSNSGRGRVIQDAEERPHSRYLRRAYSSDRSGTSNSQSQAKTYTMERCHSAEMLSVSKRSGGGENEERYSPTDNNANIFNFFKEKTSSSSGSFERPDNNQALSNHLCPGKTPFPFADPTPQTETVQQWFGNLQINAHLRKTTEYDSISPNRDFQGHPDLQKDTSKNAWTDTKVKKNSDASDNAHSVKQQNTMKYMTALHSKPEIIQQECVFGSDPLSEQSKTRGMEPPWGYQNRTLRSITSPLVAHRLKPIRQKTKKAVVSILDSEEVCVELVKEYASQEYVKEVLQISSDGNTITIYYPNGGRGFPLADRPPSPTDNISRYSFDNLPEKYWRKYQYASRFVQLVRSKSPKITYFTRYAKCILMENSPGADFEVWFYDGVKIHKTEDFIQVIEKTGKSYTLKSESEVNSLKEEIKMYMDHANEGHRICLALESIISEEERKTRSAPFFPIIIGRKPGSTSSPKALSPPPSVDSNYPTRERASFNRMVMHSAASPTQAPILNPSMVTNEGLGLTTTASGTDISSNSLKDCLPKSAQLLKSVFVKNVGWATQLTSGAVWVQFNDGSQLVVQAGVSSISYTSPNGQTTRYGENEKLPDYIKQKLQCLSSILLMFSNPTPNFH

[5] = target: Non-receptor tyrosine-protein kinase TYK2 (Homo sapiens, UniProt P29597)
[6] = target: T4, Serine/threonine-protein kinase ULK3 (Homo sapiens, UniProt Q6PHR2)
T4 sequence (Q6PHR2 whole entry): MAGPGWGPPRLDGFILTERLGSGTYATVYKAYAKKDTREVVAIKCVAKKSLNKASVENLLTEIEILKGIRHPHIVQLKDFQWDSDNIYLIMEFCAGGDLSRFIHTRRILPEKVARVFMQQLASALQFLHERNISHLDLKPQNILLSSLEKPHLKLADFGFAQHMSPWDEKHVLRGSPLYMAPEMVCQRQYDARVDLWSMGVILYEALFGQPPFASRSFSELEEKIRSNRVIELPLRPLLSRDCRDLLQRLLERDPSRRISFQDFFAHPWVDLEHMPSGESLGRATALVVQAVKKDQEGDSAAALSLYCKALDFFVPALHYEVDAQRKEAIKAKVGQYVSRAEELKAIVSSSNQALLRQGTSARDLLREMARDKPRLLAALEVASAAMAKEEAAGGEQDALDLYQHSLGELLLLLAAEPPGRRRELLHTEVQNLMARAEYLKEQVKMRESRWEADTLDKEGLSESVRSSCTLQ

[7] = target: Mitogen-activated protein kinase 10 (Homo sapiens, UniProt P53779)
Chain of Mitogen-activated protein kinase 10 (P53779 whole entry): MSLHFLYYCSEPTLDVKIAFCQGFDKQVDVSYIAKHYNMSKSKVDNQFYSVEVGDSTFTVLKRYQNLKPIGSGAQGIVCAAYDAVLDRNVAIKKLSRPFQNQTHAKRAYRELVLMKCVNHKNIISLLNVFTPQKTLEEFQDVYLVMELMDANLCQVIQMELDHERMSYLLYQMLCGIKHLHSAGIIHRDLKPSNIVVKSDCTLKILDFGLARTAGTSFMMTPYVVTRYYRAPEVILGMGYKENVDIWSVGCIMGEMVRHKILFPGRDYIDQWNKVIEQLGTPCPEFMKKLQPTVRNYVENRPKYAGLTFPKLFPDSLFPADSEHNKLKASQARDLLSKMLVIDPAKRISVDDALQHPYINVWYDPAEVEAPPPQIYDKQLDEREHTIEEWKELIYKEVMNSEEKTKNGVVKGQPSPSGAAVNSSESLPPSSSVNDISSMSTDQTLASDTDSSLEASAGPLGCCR

Chain of Non-receptor tyrosine-protein kinase TYK2 (P29597 whole entry): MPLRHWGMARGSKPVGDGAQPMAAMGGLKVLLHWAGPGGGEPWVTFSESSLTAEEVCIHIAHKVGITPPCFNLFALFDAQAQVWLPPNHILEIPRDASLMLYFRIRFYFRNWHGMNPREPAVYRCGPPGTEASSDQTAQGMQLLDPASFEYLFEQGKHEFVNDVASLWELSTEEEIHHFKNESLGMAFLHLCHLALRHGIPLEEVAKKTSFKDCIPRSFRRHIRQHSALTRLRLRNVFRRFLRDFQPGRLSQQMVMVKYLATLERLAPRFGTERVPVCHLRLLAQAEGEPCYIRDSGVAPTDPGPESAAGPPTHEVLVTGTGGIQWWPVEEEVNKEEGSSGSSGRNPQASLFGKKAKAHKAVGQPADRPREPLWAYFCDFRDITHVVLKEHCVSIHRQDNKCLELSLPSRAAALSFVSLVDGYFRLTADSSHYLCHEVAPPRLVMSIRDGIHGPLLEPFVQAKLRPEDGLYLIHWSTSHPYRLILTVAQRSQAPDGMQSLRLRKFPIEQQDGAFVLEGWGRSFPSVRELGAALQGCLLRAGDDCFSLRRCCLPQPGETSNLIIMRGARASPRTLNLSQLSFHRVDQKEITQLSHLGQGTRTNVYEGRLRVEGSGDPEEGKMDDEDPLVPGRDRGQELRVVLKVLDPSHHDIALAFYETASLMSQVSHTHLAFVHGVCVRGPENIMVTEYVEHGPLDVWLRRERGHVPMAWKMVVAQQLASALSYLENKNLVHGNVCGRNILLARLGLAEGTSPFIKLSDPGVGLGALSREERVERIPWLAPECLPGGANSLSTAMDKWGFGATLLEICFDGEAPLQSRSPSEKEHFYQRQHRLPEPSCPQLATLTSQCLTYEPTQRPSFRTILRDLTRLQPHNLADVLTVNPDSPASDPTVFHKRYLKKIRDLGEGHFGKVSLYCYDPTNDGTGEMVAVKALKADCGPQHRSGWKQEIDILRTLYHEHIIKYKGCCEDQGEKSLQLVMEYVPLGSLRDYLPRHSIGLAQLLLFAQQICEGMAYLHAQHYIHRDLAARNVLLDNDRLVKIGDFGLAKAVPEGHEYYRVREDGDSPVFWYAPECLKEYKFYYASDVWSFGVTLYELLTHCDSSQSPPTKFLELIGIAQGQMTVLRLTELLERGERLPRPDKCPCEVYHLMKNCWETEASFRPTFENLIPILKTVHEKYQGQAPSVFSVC
Chain of Macrophage-stimulating protein receptor (Q04912 25-304 limits assumed): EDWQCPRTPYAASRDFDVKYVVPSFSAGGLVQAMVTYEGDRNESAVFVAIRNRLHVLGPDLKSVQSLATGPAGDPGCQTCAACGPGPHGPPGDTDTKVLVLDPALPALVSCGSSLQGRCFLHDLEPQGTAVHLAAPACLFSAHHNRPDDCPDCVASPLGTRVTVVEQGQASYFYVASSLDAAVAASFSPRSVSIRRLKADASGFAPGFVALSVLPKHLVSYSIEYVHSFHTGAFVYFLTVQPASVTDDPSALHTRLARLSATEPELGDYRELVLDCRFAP
Chain of Macrophage-stimulating protein receptor (Q04912 310-1400 limits assumed): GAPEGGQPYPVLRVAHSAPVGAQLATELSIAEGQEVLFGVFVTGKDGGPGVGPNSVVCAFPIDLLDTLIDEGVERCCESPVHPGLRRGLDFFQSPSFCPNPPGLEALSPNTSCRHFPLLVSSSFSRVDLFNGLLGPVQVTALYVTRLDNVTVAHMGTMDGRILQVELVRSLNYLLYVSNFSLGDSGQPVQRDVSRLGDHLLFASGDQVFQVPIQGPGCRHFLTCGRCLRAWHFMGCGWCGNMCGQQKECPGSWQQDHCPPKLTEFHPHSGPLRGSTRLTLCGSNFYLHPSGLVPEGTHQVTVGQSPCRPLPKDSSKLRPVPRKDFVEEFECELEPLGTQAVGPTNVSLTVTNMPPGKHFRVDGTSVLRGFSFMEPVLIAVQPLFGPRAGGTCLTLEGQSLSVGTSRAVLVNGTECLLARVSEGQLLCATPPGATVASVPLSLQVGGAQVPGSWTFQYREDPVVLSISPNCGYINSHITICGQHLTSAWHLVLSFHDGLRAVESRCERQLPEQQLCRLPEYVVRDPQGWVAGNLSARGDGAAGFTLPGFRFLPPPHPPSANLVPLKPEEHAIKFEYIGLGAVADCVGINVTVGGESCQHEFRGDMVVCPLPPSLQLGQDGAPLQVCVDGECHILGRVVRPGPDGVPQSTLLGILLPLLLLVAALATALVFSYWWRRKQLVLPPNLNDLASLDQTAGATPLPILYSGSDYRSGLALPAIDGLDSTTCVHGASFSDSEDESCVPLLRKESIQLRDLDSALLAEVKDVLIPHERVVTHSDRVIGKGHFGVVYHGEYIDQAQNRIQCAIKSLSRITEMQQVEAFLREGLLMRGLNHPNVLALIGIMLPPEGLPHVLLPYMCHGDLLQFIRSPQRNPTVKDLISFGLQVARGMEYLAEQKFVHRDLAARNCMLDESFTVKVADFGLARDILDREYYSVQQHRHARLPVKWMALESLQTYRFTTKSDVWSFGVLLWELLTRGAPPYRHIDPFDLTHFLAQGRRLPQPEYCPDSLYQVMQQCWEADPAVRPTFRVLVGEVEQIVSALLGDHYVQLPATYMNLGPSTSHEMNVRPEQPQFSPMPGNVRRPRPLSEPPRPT

Kd [1] | Kd [2] | Kd [3] | Kd [4] | Kd [5] | Structure (SMILES) | Kd [6] | Kd [7]
> 30 µM (inactive) | > 30 µM (inactive) | > 30 µM (inactive) | > 30 µM (inactive) | > 30 µM (inactive) | NC(=O)c1ccc(N(C(N)=O)c2c(F)cccc2F)nc1-c1ccc(F)cc1F [VX-702] | > 30 µM (inactive) | 
> 30 µM (inactive) | > 30 µM (inactive) |  | > 30 µM (inactive) | > 30 µM (inactive) | Cn1c(=O)n(-c2ccc(C(C)(C)C#N)cc2)c2c3cc(-c4cnc5ccccc5c4)ccc3ncc21 [DACTOLISIB] | > 30 µM (inactive) | 
> 30 µM (inactive) |  |  |  |  | COc1cc2c(Oc3ccc4[nH]c(C)cc4c3F)ncnc2cc1OCCCN1CCCC1 [CEDIRANIB] |  | 
> 30 µM (inactive) | > 30 µM (inactive) | > 30 µM (inactive) | > 30 µM (inactive) | > 30 µM (inactive) | O[C@H]1CC[C@H](Nc2ncc3nc(Nc4c(F)cc(F)cc4F)n([C@H]4CCOC4)c3n2)CC1 [TANZISERTIB] | > 30 µM (inactive) | 
> 30 µM (inactive) |  |  |  |  | COc1cc2c(N3CCN(C(=O)Nc4ccc(OC(C)C)cc4)CC3)ncnc2cc1OCCCN1CCCCC1 [TANDUTINIB] |  | 
> 30 µM (inactive) |  |  |  |  | CN(C)C/C=C/C(=O)Nc1cc2c(Nc3ccc(F)c(Cl)c3)ncnc2cc1O[C@H]1CCOC1 [AFATINIB] |  | 
> 30 µM (inactive) | > 30 µM (inactive) | > 30 µM (inactive) | > 30 µM (inactive) | > 30 µM (inactive) | CCN1CCN(Cc2ccc(Nc3ncc(F)c(-c4cc(F)c5nc(C)n(C(C)C)c5c4)n3)nc2)CC1 [ABEMACICLIB] | > 30 µM (inactive) | 
> 30 µM (inactive) |  |  |  |  | Cn1cnc2c(F)c(Nc3ccc(Br)cc3Cl)c(C(=O)NOCCO)cc21 [SELUMETINIB] |  | 
> 30 µM (inactive) | > 30 µM (inactive) | > 30 µM (inactive) |  |  | CC[C@@](C)(Nc1ccnc(-c2c[nH]c3ncccc23)n1)C(=O)NCC(F)(F)F [DECERNOTINIB] | > 30 µM (inactive) | > 30 µM (inactive)
> 30 µM (inactive) |  |  |  |  | C[C@@]1(C(=O)Nc2ccc(F)nc2)CCCN1c1nc(Nc2cc(C3CC3)n[nH]2)c2cccn2n1 [BMS-754807] |  | 
> 30 µM (inactive) | > 30 µM (inactive) | > 30 µM (inactive) | 0.301 µM |  | CCOc1ccn(-c2ccc(F)cc2)c(=O)c1C(=O)Nc1ccc(Oc2ccnc(N)c2Cl)c(F)c1 [BMS-777607] |  | > 30 µM (inactive)
> 30 µM (inactive) |  |  |  |  | CC1(C)CNc2cc(NC(=O)c3cccnc3NCc3ccncc3)ccc21 [MOTESANIB] |  | 
> 30 µM (inactive) | > 30 µM (inactive) |  | > 30 µM (inactive) | > 30 µM (inactive) | COc1cc2nccc(Oc3ccc(NC(=O)C4(C(=O)Nc5ccc(F)cc5)CC4)cc3)c2cc1OC [CABOZANTINIB] | > 30 µM (inactive) | > 30 µM (inactive)
> 30 µM (inactive) | > 30 µM (inactive) | > 30 µM (inactive) | > 30 µM (inactive) | > 30 µM (inactive) | S=C(NCc1ccc2c(c1)OCO2)N1CCN(c2ncnc3c2oc2ccccc23)CC1 [AMUVATINIB] | > 30 µM (inactive) | 
 | > 30 µM (inactive) | > 30 µM (inactive) | > 30 µM (inactive) | > 30 µM (inactive) | COc1cc2ncnc3c2cc1OCCCCCN(C)Cc1ccc(Br)cc1N3 [JNJ-26483327] | > 30 µM (inactive) | > 30 µM (inactive)
> 30 µM (inactive) | > 30 µM (inactive) |  | > 30 µM (inactive) | > 30 µM (inactive) | CCN(CCCOc1ccc2c(Nc3cc(CC(=O)Nc4cccc(F)c4)n[nH]3)ncnc2c1)CCOP(=O)(O)O [BARASERTIB] | > 30 µM (inactive) | 

Structure (SMILES) | Kd [1] | Kd [2] | Kd [3] | Kd [4] | Kd [5] | Kd [6] | Kd [7]
Cc1c(NC(=O)OC[C@@H]2COCCN2)cn2ncnc(Nc3ccc4c(cnn4Cc4cccc(F)c4)c3)c12 [AC-480] | > 30 µM (inactive) | > 30 µM (inactive) | > 30 µM (inactive) | > 30 µM (inactive) | > 30 µM (inactive) | > 30 µM (inactive) | > 30 µM (inactive)
Cn1cc(-c2[nH]c3cc(NC(=O)[C@H](N)C4CCCCC4)cc4c3c2C=NNC4=O)cn1 | > 30 µM (inactive) | 2.61 µM (active) | > 30 µM (inactive) |  | > 30 µM (inactive) | 1.17 µM (active) | > 30 µM (inactive)
CN(c1ncccc1CNc1nc(Nc2ccc3c(c2)CC(=O)N3)ncc1C(F)(F)F)S(C)(=O)=O [PF-00562271] | > 30 µM (inactive) |  |  |  |  | > 30 µM (inactive) | 
C[C@]1(O)C[C@@H](c2nc(-c3ccc4ccc(-c5ccccc5)nc4c3)c3c(N)nccn32)C1 [LINSITINIB] | > 30 µM (inactive) |  |  |  |  | > 30 µM (inactive) | > 30 µM (inactive)
COc1cc(F)c(F)c(Nc2ccc(I)cc2F)c1NS(=O)(=O)C1(C[C@H](O)CO)CC1 [REFAMETINIB] |  | > 30 µM (inactive) | > 30 µM (inactive) | > 30 µM (inactive) | > 30 µM (inactive) | > 30 µM (inactive) | 0.036 µM (active)
CC1(COc2ccc3c(c2)ncn3-c2ccc3cccc(N4CCC(N)CC4)c3n2)COC1 [CRENOLANIB] | > 30 µM (inactive) |  | > 30 µM (inactive) | > 30 µM (inactive) | > 30 µM (inactive) | > 30 µM (inactive) | > 30 µM (inactive)
C=CCn1c(=O)c2cnc(Nc3ccc(N4CCN(C)CC4)cc3)nc2n1-c1cccc(C(C)(C)O)n1 [ADAVOSERTIB] | > 30 µM (inactive) | > 30 µM (inactive) |  | > 30 µM (inactive) | > 30 µM (inactive) | > 30 µM (inactive) | > 30 µM (inactive)
CCc1nc(C(N)=O)c(Nc2ccc(N3CCC(N4CCN(C)CC4)CC3)c(OC)c2)nc1NC1CCOCC1 [GILTERITINIB] | 0.432 µM (active) |  | 0.804 µM (active) | 0.018 µM | > 30 µM (inactive) | 0.006 µM (active) | 0.512 µM (active)
N#CCNC(=O)c1ccc(-c2ccnc(Nc3ccc(N4CCOCC4)cc3)n2)cc1 [MOMELOTINIB] | > 30 µM (inactive) | > 30 µM (inactive) | > 30 µM (inactive) |  |  |  | 
O=S(=O)(c1cccc2cnccc12)N1CCCNCC1 [FASUDIL] | > 30 µM (inactive) |  |  |  |  | > 30 µM (inactive) | > 30 µM (inactive)
